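Method: 48-hour compound exposure of cells in 96-well plates, five concentrations, linear interpolation of endpoints. TGI marks complete inhibition of growth.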

Results on seven molecules are retold here after PubChem BioAssay (NCI).

Test systems include SW-620 colon; ACHN renal; UACC-62 melanoma; OVCAR-3 ovarian; SF-539 CNS; NCI-H23 lung; OVCAR-4 ovarian; HOP-62 NSCLC; HT29 colon; M19-MEL melanoma; KM20L2 colon; RPMI-8226 leukemia; NCI-H522 lung; SK-OV-3 ovarian; MOLT-4 leukemia; NCI-H226 lung; UO-31 renal.
Holding throughout (assay): DTP human tumour cell line panel, 48 h

Regarding `CCCCCCCCCCCCn1[nH]c(C)c(C(=S)SCCCCCCCC)c1=O`, the TGI is over 62 µM in the assay on SW-620 colon; over 100 µM with ACHN renal; 64.6 µM in the assay with UACC-62 melanoma; over 100 µM in the assay with OVCAR-3 ovarian; over 100 µM with SF-539 CNS; over 100 µM in the assay with NCI-H23 lung. In addition, the TGI was over 100 µM in the assay on OVCAR-4 ovarian; over 100 µM in the assay on HOP-62 NSCLC; over 100 µM in the assay with HT29 colon; 67.7 µM with M19-MEL melanoma; over 100 µM in the assay on KM20L2 colon; over 35.7 µM in the assay on RPMI-8226 leukemia. For the same molecule, the total growth inhibition concentration (TGI) with NCI-H522 lung is over 100 µM; with SK-OV-3 ovarian it was over 100 µM; with MOLT-4 leukemia, over 77.2 µM; in the assay with NCI-H226 lung it was over 94.8 µM; in the assay on UO-31 renal, over 100 µM.

`CCc1cccc(C(C)CC)c1NC(=O)C(=O)C(CC(=O)Nc1ccc(Cl)c(Cl)c1)C(=O)OC` (configuration not stated): the TGI is over 100 µM with SW-620 colon; 69.8 µM with ACHN renal; 18.9 µM with UACC-62 melanoma; over 100 µM in the assay with OVCAR-3 ovarian; over 100 µM in the assay with SF-539 CNS; over 100 µM in the assay on NCI-H23 lung. The total growth inhibition concentration (TGI) in the assay on OVCAR-4 ovarian, with HOP-62 NSCLC, in the assay on HT29 colon, in the assay with M19-MEL melanoma, with KM20L2 colon and in the assay on RPMI-8226 leukemia was over 100 µM throughout. The TGI with NCI-H522 lung, in the assay with SK-OV-3 ovarian, in the assay with MOLT-4 leukemia, in the assay with NCI-H226 lung and in the assay on UO-31 renal was over 100 µM each time.

Consider `COc1cc(C)c(C)c(OC(=O)c2c(C)c(C)c(OC)c(C)c2OC)c1C`, for which the TGI in the assay on SW-620 colon was 36 µM; in the assay with ACHN renal, over 100 µM; with UACC-62 melanoma it was over 100 µM; in the assay on OVCAR-3 ovarian, 7.15 µM; with SF-539 CNS it was 38.6 µM; in the assay with NCI-H23 lung, 52.9 µM. The TGI was over 100 µM in the assay on OVCAR-4 ovarian; over 100 µM in the assay on HOP-62 NSCLC; 23.5 µM with HT29 colon; 46.6 µM with M19-MEL melanoma; 19.6 µM with KM20L2 colon; 81.5 µM with RPMI-8226 leukemia. In addition, the TGI with NCI-H522 lung was 4.71 µM; with SK-OV-3 ovarian, 57.2 µM; in the assay with MOLT-4 leukemia, 45.2 µM; with NCI-H226 lung, 72.1 µM; in the assay on UO-31 renal, over 100 µM.

`CC(C(=O)c1ccc(Cl)cc1)C1OC(=O)C(Cl)=C1Cl` (configuration not stated): the concentration for total growth inhibition (TGI) was over 100 µM in the assay with SW-620 colon; over 100 µM in the assay on ACHN renal; 46.7 µM in the assay with UACC-62 melanoma; 71.9 µM in the assay with OVCAR-3 ovarian; 70.9 µM in the assay on SF-539 CNS; 71.1 µM in the assay on NCI-H23 lung. In addition, the total growth inhibition concentration (TGI) was 64.6 µM with OVCAR-4 ovarian; over 100 µM in the assay with HOP-62 NSCLC; over 100 µM in the assay with HT29 colon; 52.3 µM with M19-MEL melanoma; over 100 µM in the assay on KM20L2 colon; 70.8 µM in the assay on RPMI-8226 leukemia. Further, the TGI in the assay with NCI-H522 lung is 37.7 µM; with SK-OV-3 ovarian, over 100 µM; in the assay with MOLT-4 leukemia it was 64 µM; with NCI-H226 lung, over 100 µM; in the assay with UO-31 renal it was over 100 µM.

Consider `CCCCCCCCCCCC(=O)c1c(O)cccc1O`, for which the concentration for total growth inhibition (TGI) in the assay with SW-620 colon is 33.5 µM; in the assay with ACHN renal it was 33.8 µM; in the assay on UACC-62 melanoma it was 34.3 µM; with OVCAR-3 ovarian it was 31.4 µM; with SF-539 CNS, 32.4 µM; in the assay with NCI-H23 lung, 32.2 µM. Further, the concentration for total growth inhibition (TGI) was determined as 37.6 µM in the assay on OVCAR-4 ovarian; 31.5 µM with HOP-62 NSCLC; 45 µM with HT29 colon; 34.5 µM in the assay on M19-MEL melanoma; 48.5 µM with KM20L2 colon; 68.5 µM in the assay with RPMI-8226 leukemia. The TGI in the assay on NCI-H522 lung was 33.2 µM; in the assay with SK-OV-3 ovarian, 85.8 µM; in the assay on MOLT-4 leukemia it was 47.8 µM; in the assay with NCI-H226 lung, 34.7 µM; with UO-31 renal, 30.2 µM.

Regarding `C/C(CC(=O)NC1=CC=C(NC(=O)C/C(C)=N\Nc2ccccc2)CC1)=N/Nc1ccccc1`, the TGI in the assay on ACHN renal, in the assay on UACC-62 melanoma, in the assay on OVCAR-3 ovarian, in the assay with SF-539 CNS, with NCI-H23 lung and in the assay with OVCAR-4 ovarian was over 100 µM throughout. In addition, the total growth inhibition concentration (TGI) with HOP-62 NSCLC, in the assay on HT29 colon, with M19-MEL melanoma, in the assay with KM20L2 colon, in the assay on RPMI-8226 leukemia and with NCI-H522 lung was over 100 µM in each case. Moreover, the TGI in the assay on SK-OV-3 ovarian, in the assay on MOLT-4 leukemia, in the assay on NCI-H226 lung and in the assay on UO-31 renal was over 100 µM each time.

Take `CC(=O)NC(CCCNC(=O)NCCCl)C(=O)NCc1ccccc1` (configuration not stated): the TGI in the assay on SW-620 colon, in the assay with ACHN renal, with UACC-62 melanoma, with OVCAR-3 ovarian, in the assay with SF-539 CNS and in the assay with NCI-H23 lung was over 100 µM throughout. Moreover, the TGI in the assay on OVCAR-4 ovarian, with HOP-62 NSCLC, in the assay with HT29 colon, in the assay on M19-MEL melanoma, with KM20L2 colon and with RPMI-8226 leukemia was over 100 µM throughout. The TGI with NCI-H522 lung, with MOLT-4 leukemia, in the assay on NCI-H226 lung and with UO-31 renal was over 100 µM in each case.
